Assay results from PubChem BioAssay AID248 (DTP/NCI, 2004).
Where “and” joins values, the source holds several entries; their conditions need not be identical. Equal entries are not always repeated. Toxic doses and inconclusive results are not listed.

System: L1210 leukemia ip in BDF1 mice, survival T/C
Assay: NCI In Vivo Anticancer Drug Screen. Data for tumor model L1210 Leukemia (intraperitoneal) in B6D2F1 (BDF1) mice
Conditions: endpoint: mean survival time, higher = longer survival
Method in brief: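 Survival endpoint. Drug-treated group vs vehicle group, expressed as T divided by C. Tumor passaged by transplantation.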

[1] = dose: 100.0 mg/kg/injection, schedule: Q01DX001 (ip), vehicle: saline
[2] = dose: 100.0 mg/kg/injection, schedule: Q04DX003 (ip), vehicle: saline
[3] = dose: 200.0 mg/kg/injection, schedule: Q01DX001 (ip), vehicle: saline
[4] = dose: 200.0 mg/kg/injection, schedule: Q04DX003 (ip), vehicle: saline
[5] = dose: 400.0 mg/kg/injection, schedule: Q01DX001 (ip), vehicle: saline
[6] = dose: 400.0 mg/kg/injection, schedule: Q04DX003 (ip), vehicle: saline
[7] = dose: 200.0 mg/kg/injection, schedule: Q01DX009 (ip), vehicle: saline with Tween-80
[8] = dose: 400.0 mg/kg/injection, schedule: Q01DX009 (ip), vehicle: saline with Tween-80
[9] = dose: 100.0 mg/kg/injection, schedule: Q01DX001 (ip), vehicle: other
[10] = dose: 200.0 mg/kg/injection, schedule: Q01DX001 (ip), vehicle: other
[11] = dose: 100.0 mg/kg/injection, schedule: Q01DX009 (ip), vehicle: saline with Tween-80
[12] = dose: 100.0 mg/kg/injection, schedule: Q04DX003 (ip), vehicle: saline with Tween-80
[13] = dose: 200.0 mg/kg/injection, schedule: Q04DX003 (ip), vehicle: saline with Tween-80
[14] = dose: 400.0 mg/kg/injection, schedule: Q04DX003 (ip), vehicle: saline with Tween-80
[15] = dose: 50.0 mg/kg/injection, schedule: Q01DX001 (ip), vehicle: saline
[16] = dose: 100.0 mg/kg/injection, schedule: Q04DX003 (ip), vehicle: Klucel (hydroxypropylcellulose) (HPC)
[17] = dose: 200.0 mg/kg/injection, schedule: Q04DX003 (ip), vehicle: Klucel (hydroxypropylcellulose) (HPC)
[18] = dose: 400.0 mg/kg/injection, schedule: Q04DX003 (ip), vehicle: Klucel (hydroxypropylcellulose) (HPC)

O=NN(CCCl)C(=O)N[C@@H]1CCC[C@@H](O)C1
T/C (dose: 13.0 mg/kg/injection, schedule: Q01DX001 (ip), vehicle: saline with Tween-80): 250 % of control | T/C (dose: 20.0 mg/kg/injection, schedule: Q01DX001 (ip), vehicle: saline with Tween-80): 357 % of control | T/C (dose: 30.0 mg/kg/injection, schedule: Q01DX001 (ip), vehicle: saline with Tween-80): 420 % of control | T/C (dose: 44.0 mg/kg/injection, schedule: Q01DX001 (ip), vehicle: saline with Tween-80): 417 % of control

O=S(=O)(CC(Cl)c1ccccc1)c1ccc(Br)cc1 (stereo not given)
T/C [1]: 94 % of control | T/C [2]: 94 % of control | T/C [3]: 92 % of control | T/C [4]: 96 % of control | T/C [5]: 92 % of control | T/C [6]: 94 % of control

Clc1cccc(NC(c2ccccc2)=[N+]2CCCCC2)c1
T/C (dose: 100.0 mg/kg/injection, schedule: Q04DX002 (ip), vehicle: Klucel (hydroxypropylcellulose) (HPC)): 95 % of control | T/C (dose: 200.0 mg/kg/injection, schedule: Q04DX002 (ip), vehicle: Klucel (hydroxypropylcellulose) (HPC)): 106 % of control | T/C (dose: 400.0 mg/kg/injection, schedule: Q04DX002 (ip), vehicle: Klucel (hydroxypropylcellulose) (HPC)): 113 % of control

O=C(Nc1ccc(C(=O)O)c(O)c1)Nc1ccccc1C(F)(F)F
T/C (dose: 50.0 mg/kg/injection, schedule: Q01DX001 (ip), vehicle: carboxymethylcellulose (CMC)): 92 % of control | T/C (dose: 50.0 mg/kg/injection, schedule: Q01DX009 (ip), vehicle: carboxymethylcellulose (CMC)): 100 % of control and 106 % of control | T/C (dose: 50.0 mg/kg/injection, schedule: Q04DX003 (ip), vehicle: carboxymethylcellulose (CMC)): 93 % of control | T/C (dose: 100.0 mg/kg/injection, schedule: Q01DX001 (ip), vehicle: carboxymethylcellulose (CMC)): 101 % of control | T/C (dose: 100.0 mg/kg/injection, schedule: Q01DX009 (ip), vehicle: carboxymethylcellulose (CMC)): 105 % of control and 92 % of control | T/C (dose: 100.0 mg/kg/injection, schedule: Q04DX002 (ip), vehicle: carboxymethylcellulose (CMC)): 94 % of control and 97 % of control | T/C (dose: 100.0 mg/kg/injection, schedule: Q04DX003 (ip), vehicle: carboxymethylcellulose (CMC)): 88 % of control | T/C (dose: 200.0 mg/kg/injection, schedule: Q01DX001 (ip), vehicle: carboxymethylcellulose (CMC)): 97 % of control | T/C (dose: 200.0 mg/kg/injection, schedule: Q01DX009 (ip), vehicle: carboxymethylcellulose (CMC)): 91 % of control and 92 % of control | T/C (dose: 200.0 mg/kg/injection, schedule: Q04DX002 (ip), vehicle: carboxymethylcellulose (CMC)): 101 % of control and 108 % of control | T/C (dose: 200.0 mg/kg/injection, schedule: Q04DX003 (ip), vehicle: carboxymethylcellulose (CMC)): 89 % of control | T/C (dose: 400.0 mg/kg/injection, schedule: Q04DX002 (ip), vehicle: carboxymethylcellulose (CMC)): 103 % of control

CC(C)(C)C(CCC(=O)O)CC(=O)O (stereo not given)
T/C [7]: 90 % of control | T/C [8]: 89 % of control

CC(C)(C)C#C[P+](C#CC(C)(C)C)(Cc1ccccc1)c1ccccc1
T/C (dose: 12.5 mg/kg/injection, schedule: Q01DX009 (ip), vehicle: saline): 99 % of control | T/C (dose: 12.5 mg/kg/injection, schedule: Q04DX003 (ip), vehicle: saline): 98 % of control | T/C (dose: 25.0 mg/kg/injection, schedule: Q01DX009 (ip), vehicle: saline): 94 % of control | T/C (dose: 25.0 mg/kg/injection, schedule: Q04DX003 (ip), vehicle: saline): 106 % of control | T/C (dose: 50.0 mg/kg/injection, schedule: Q04DX003 (ip), vehicle: saline): 117 % of control

CC(=O)Nn1cnc2c(SCc3ccccc3)ncnc21
T/C [9]: 96 % of control | T/C (dose: 177.0 mg/kg/injection, schedule: Q01DX001 (ip), vehicle: other): 105 % of control | T/C [10]: 100 % of control | T/C (dose: 266.0 mg/kg/injection, schedule: Q01DX001 (ip), vehicle: other): 115 % of control

c1ccc(CCCC2CCCC2)cc1
T/C (dose: 75.0 mg/kg/injection, schedule: Q01DX001 (ip), vehicle: saline): 94 % of control | T/C (dose: 75.0 mg/kg/injection, schedule: Q01DX009 (ip), vehicle: saline): 106 % of control | T/C (dose: 150.0 mg/kg/injection, schedule: Q01DX001 (ip), vehicle: saline): 96 % of control | T/C (dose: 150.0 mg/kg/injection, schedule: Q01DX009 (ip), vehicle: saline): 108 % of control | T/C (dose: 300.0 mg/kg/injection, schedule: Q01DX001 (ip), vehicle: saline): 97 % of control | T/C (dose: 300.0 mg/kg/injection, schedule: Q01DX009 (ip), vehicle: saline): 106 % of control

CCN(C(=O)COc1ccc(Cl)cc1Cl)c1ccccc1C
T/C [11]: 106 % of control | T/C [12]: 105 % of control | T/C [7]: 107 % of control | T/C [13]: 102 % of control | T/C [8]: 98 % of control | T/C [14]: 93 % of control

Nc1ccn(CC(=O)N2CCC3(CC2)SSC2(CCN(C(=O)Cn4ccc(N)nc4=O)CC2)S3)c(=O)n1
T/C [2]: 97 % of control | T/C [4]: 91 % of control | T/C [6]: 97 % of control

CCOC=N
T/C [15]: 95 % of control | T/C [1]: 95 % of control | T/C [3]: 97 % of control | T/C [5]: 101 % of control

Cc1cccc(CC23CC4CC(CC(C4)C2)C3)c1
T/C [11]: 91 % of control | T/C [12]: 102 % of control | T/C [7]: 90 % of control | T/C [13]: 100 % of control | T/C [8]: 95 % of control | T/C [14]: 98 % of control

N#CC(O)Cc1ccccc1 (stereo not given)
T/C (dose: 2.5 mg/kg/injection, schedule: Q01DX009 (ip), vehicle: saline): 95 % of control | T/C (dose: 5.0 mg/kg/injection, schedule: Q01DX009 (ip), vehicle: saline): 90 % of control | T/C (dose: 10.0 mg/kg/injection, schedule: Q01DX009 (ip), vehicle: saline): 97 % of control

O=C(Nc1ccc(C(=O)O)c(O)c1)Oc1ccccc1
T/C [16]: 90 % of control | T/C [17]: 98 % of control | T/C [18]: 107 % of control

C[Si](C)(C)Br
T/C (dose: 100.0 mg/kg/injection, schedule: Q01DX009 (ip), vehicle: saline): 96 % of control | T/C (dose: 200.0 mg/kg/injection, schedule: Q01DX009 (ip), vehicle: saline): 87 % of control | T/C (dose: 400.0 mg/kg/injection, schedule: Q01DX009 (ip), vehicle: saline): 87 % of control

CCOC(=O)C(OCc1ccccc1)(C(=O)O)C(C)C (stereo not given)
T/C (dose: 25.0 mg/kg/injection, schedule: Q04DX003 (ip), vehicle: saline with Tween-80): 93 % of control | T/C (dose: 50.0 mg/kg/injection, schedule: Q04DX003 (ip), vehicle: saline with Tween-80): 97 % of control | T/C [12]: 98 % of control | T/C [13]: 103 % of control

CC(=O)C(Cl)C(C)=O.CC(=O)CC(C)=O.CC(=O)CC(C)=O.[Rh]
T/C (dose: 50.0 mg/kg/injection, schedule: Q01DX001 (ip), vehicle: other): 108 % of control | T/C [9]: 102 % of control | T/C [10]: 98 % of control | T/C (dose: 400.0 mg/kg/injection, schedule: Q01DX001 (ip), vehicle: other): 98 % of control

Cc1ccccc1CN(C)N=O
T/C [1]: 101 % of control | T/C [3]: 94 % of control | T/C [5]: 91 % of control

Clc1ccc2c[n+]3ccccc3cc2c1
T/C (dose: 2.0 mg/kg/injection, schedule: Q01DX Z (ip), vehicle: carboxymethylcellulose (CMC)): 102 % of control | T/C (dose: 4.0 mg/kg/injection, schedule: Q01DX Z (ip), vehicle: carboxymethylcellulose (CMC)): 92 % of control | T/C (dose: 8.0 mg/kg/injection, schedule: Q01DX Z (ip), vehicle: carboxymethylcellulose (CMC)): 103 % of control | T/C (dose: 16.0 mg/kg/injection, schedule: Q01DX Z (ip), vehicle: carboxymethylcellulose (CMC)): 105 % of control

Cc1ccc(/C=C\C(=O)OCCCCOC(=O)/C=C/c2ccc(C)cc2)cc1
T/C [15]: 97 % of control | T/C [1]: 95 % of control | T/C [3]: 91 % of control | T/C [5]: 95 % of control

C/C(=C/c1c(C)c([N+](=O)[O-])c(C)c(C)c1[N+](=O)[O-])C(=O)O
T/C (dose: 100.0 mg/kg/injection, schedule: Q01DX001 (ip), vehicle: Klucel (hydroxypropylcellulose) (HPC)): 100 % of control | T/C [16]: 114 % of control | T/C (dose: 200.0 mg/kg/injection, schedule: Q01DX001 (ip), vehicle: Klucel (hydroxypropylcellulose) (HPC)): 91 % of control | T/C [17]: 97 % of control | T/C (dose: 400.0 mg/kg/injection, schedule: Q01DX001 (ip), vehicle: Klucel (hydroxypropylcellulose) (HPC)): 107 % of control | T/C [18]: 101 % of control
